Experimental findings from patent publication US20090170834A1, “Fused Pyrimidones and Thiopyrimidones, and Uses Thereof” (PROLEXYS PHARMACEUTICALS, INC., priority 2005, published 2009) are described below.

Broadly, the IC50 is the midpoint of a concentration-inhibition curve. Low values mean inhibition by little substance, high ones a need for much substance.

Some results are limits rather than exact numbers.

The first assay concerns HT-1080 cells. Description: Inhibition of growth of HT-1080 cells (Sytox assay). The format is cell-based. The note with it: Homo sapiens; HT-1080 fibrosarcoma cells, N-ras codon 12 mutation; compound in DMSO, 48 hours exposure. The procedure:
The ability of Compounds 1 and 2, dissolved in DMSO, to inhibit the growth of normal and tumorigenic cells was measured. The compounds were assayed by the Sytox primary screen, a phenotypic assay which monitors alterations in cell survival-proliferation as a result of compound treatment. It was devised as high throughput method to identify compounds which specifically alter the growth potential of cells harboring the causative mutations found in cancer patients while not affecting the growth of normal cells. The assay relies upon an inexpensive, simple and reliable readout of a membrane impermeable fluorescent dye (Sytox, from Molecular Probes) which binds to nucleic acid. In healthy cells, no signal is detected because the cell's membrane is intact and the dye will not enter. However, if a cell's membrane is compromised as a result of apoptosis or necrosis, a fluorescent signal proportional to the number of similarly affected cells will be detected. By utilizing a two-step readout (final read in the presence of detergent to permit labeling of all cells), the assay can identify compounds which produce cytostasis, cytotoxicity and/or mitogenesis. The first read or “dead cell” read, provides an estimate of the toxicity of a given compound by indicating the number of dead or dying cells in the culture at the time of assay. The second read or “total cell” read, captures both the cumulative effects of cytoxicity in reducing the size of the cell population as well as any cytostatic or anti-proliferative effects a test compound may exert on the cells in the test population in the absence of toxicity.
Cells were seeded overnight in 96 well plates at densities that without treatment would permit 95% confluence in the wells 72 hours later. The following day, the cells were exposed to test compounds in a dilution series for a period of 48 hours. Following this incubation period, the Sytox reagent was added to the cultures at the manufacturer's recommended concentration and the dead cell fluorescence read was taken. After completion of this measurement, the detergent Saponin was added to each well of the cultures to permeabilize the membranes allowing the Sytox reagent to enter every cell, thereby facilitating measurement of the total number of cells remaining in the culture.
The ability of various compounds of the invention, in DMSO, to inhibit the growth of HT-1080 cells was measured. The HT-1080 cell line used in these experiments was derived from a patient with fibrosarcoma and harbors an activating mutation in the N-ras gene at codon 12. The compound was assayed using the assay described in Example 6. The results of the assay are shown in the table below, where the activity corresponds to the following ranges: A—less than 10 nM, B—10-100 nM, C—100-1000 nM, D—1000-2000 nM, E—greater than 2000 nM.
On to `CCOc1ccccc1-n1c(CN2CCNCC2)nc2c(cnn2-c2ccccc2)c1=O` [Compound 3, 5-(2-ethoxyphenyl)-1-phenyl-6-(piperazin-1-ylmethyl)-1H-pyrazolo[3,4-d]pyrimidin-4(5H)-one], for which the IC50 was greater than 2000 nM.

`CCOc1ccccc1-n1c(CN2CCNCC2)nc2sccc2c1=O` [Compound 4, 3-(2-ethoxyphenyl)-2-(piperazin-1-ylmethyl)thieno[2,3-d]pyrimidin-4(3H)-one] returned an IC50 of 100 to 1000 nM. Same read-out and setting: as for `CCOc1ccccc1-n1c(CN2CCCNCC2)nc2sccc2c1=O` [Compound 5, 2-((1,4-diazepan-1-yl)methyl)-3-(2-ethoxyphenyl)thieno[2,3-d]pyrimidin-4(3H)-one], the figure is less than 10 nM.

`CCOc1ccccc1-n1c(CN2CCCN(C)CC2)nc2sccc2c1=O` [Compound 6, 3-(2-ethoxyphenyl)-2-((4-methyl-1,4-diazepan-1-yl)methyl)thieno[2,3-d]pyrimidin-4(3H)-one]: the IC50 is less than 10 nM. Same read-out and setting: as for `CCOc1ccccc1-n1c(CN2CCCN(CC)CC2)nc2sccc2c1=O` [Compound 7, 3-(2-ethoxyphenyl)-2-((4-ethyl-1,4-diazepan-1-yl)methyl)thieno[2,3-d]pyrimidin-4(3H)-one], the figure is 10 to 100 nM. Still for that read-out and setting: as for `CCOc1ccccc1-n1c(CN2CCNCC2)nc2cnccc2c1=O` [Compound 8, 3-(2-ethoxyphenyl)-2-(piperazin-1-ylmethyl)pyrido[3,4-d]pyrimidin-4(3H)-one], the figure is greater than 2000 nM; as for `CCOc1ccccc1-n1c(CN2CCCN(C)CC2)nc2cnccc2c1=O` [Compound 9, 3-(2-ethoxyphenyl)-2-((4-methyl-1,4-diazepan-1-yl)methyl)pyrido[3,4-d]pyrimidin-4(3H)-one], greater than 2000 nM.

In a further assay the test system is engineered tumorigenic cells. In words: Sytox primary screen, inhibition of growth of tumorigenic cells. The format is cell-based. The settings on record: Homo sapiens; compound in DMSO, 48 hours exposure, Sytox readout. The method, then:
The ability of Compounds 1 and 2, dissolved in DMSO, to inhibit the growth of normal and tumorigenic cells was measured. The compounds were assayed by the Sytox primary screen, a phenotypic assay which monitors alterations in cell survival-proliferation as a result of compound treatment. It was devised as high throughput method to identify compounds which specifically alter the growth potential of cells harboring the causative mutations found in cancer patients while not affecting the growth of normal cells. The assay relies upon an inexpensive, simple and reliable readout of a membrane impermeable fluorescent dye (Sytox, from Molecular Probes) which binds to nucleic acid. In healthy cells, no signal is detected because the cell's membrane is intact and the dye will not enter. However, if a cell's membrane is compromised as a result of apoptosis or necrosis, a fluorescent signal proportional to the number of similarly affected cells will be detected. By utilizing a two-step readout (final read in the presence of detergent to permit labeling of all cells), the assay can identify compounds which produce cytostasis, cytotoxicity and/or mitogenesis. The first read or “dead cell” read, provides an estimate of the toxicity of a given compound by indicating the number of dead or dying cells in the culture at the time of assay. […]
Regarding `CCOc1ccccc1-n1c(C(C)N2CCN(C(=O)COc3ccc(Cl)cc3)CC2)nc2ccncc2c1=O` (stereo not drawn) [Compound 1, 2-(1-(4-(2-(4-chlorophenoxy)acetyl)piperazin-1-yl)ethyl)-3-(2-ethoxyphenyl)pyrido[4,5-d]pyrimidin-4(3H)-one], the IC50 is roughly 10000 nM. On the same count and under the same terms, as for `CCOc1ccccc1-n1c(C(C)N2CCN(C(=O)COc3ccc(Cl)cc3)CC2)nc2c(cnn2-c2ccccc2)c1=O` (stereo not drawn) [Compound 2, 6-(1-(4-(2-(4-chlorophenoxy)acetyl)piperazin-1-yl)ethyl)-5-(2-ethoxyphenyl)-1-phenyl-1H-pyrazolo[3,4-d]pyrimidin-4(5H)-one], the figure is roughly 10000 nM.
